Source: ChEMBL document CHEMBL5380842, “Discovery of a Potent and Selective CCR8 Small Molecular Antagonist IPG7236 for the Treatment of Cancer” (J Med Chem, 2023)
Converted amounts (≈) assume the structure as drawn.

Columns and labels:
[1] = Apparent permeability of compound across apical to basal side in human Caco2 cells at 10 uM incubated for 120 mins by LC-MS/MS analysis; settings: Caco-2
[2] = Apparent permeability of compound across basal to apical side in human Caco2 cells at 10 uM incubated for 120 mins by LC-MS/MS analysis; settings: Caco-2
[3] = target: C-C chemokine receptor type 8 (Homo sapiens, UniProt P51685); experiment: Antagonist activity against CCR8 (unknown origin) expressed in CHO-K1 cells preincubated for 1 hr followed by CCL1 addition measured after 24 hrs by ONE-Glo assay; type: cell-based
C-C chemokine receptor type 8, sequence (P51685 whole entry): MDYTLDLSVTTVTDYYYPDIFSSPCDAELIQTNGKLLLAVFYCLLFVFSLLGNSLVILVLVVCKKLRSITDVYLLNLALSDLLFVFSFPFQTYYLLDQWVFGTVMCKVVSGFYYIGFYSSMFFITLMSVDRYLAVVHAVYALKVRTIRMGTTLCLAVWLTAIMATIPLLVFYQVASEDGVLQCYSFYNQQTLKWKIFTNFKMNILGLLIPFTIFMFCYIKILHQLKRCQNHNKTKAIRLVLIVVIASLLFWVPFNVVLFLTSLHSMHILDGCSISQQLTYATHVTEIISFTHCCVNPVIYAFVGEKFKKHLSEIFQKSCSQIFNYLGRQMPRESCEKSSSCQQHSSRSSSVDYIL

[4] = Efflux ratio of apparent permeability across basolateral to apical side over apical to basolateral side in human Caco-2 cells at 10 uM incubated for 120 mins by LC-MS/MS analysis
[5] = Solubility of compound in PBS at pH 7.4 incubated for 2 hrs by LC-MS/MS analysis; type: physicochemical

Papp A→B at 2 h, 10 µM [1] [×10⁻⁶ cm/s] | Papp B→A at 2 h, 10 µM [2] [×10⁻⁶ cm/s] | IC50 [3] [µM] | efflux ratio at 2 h, 10 µM [4] | solubility at 2 h [5] [µM] | SMILES
2.2 | 19.8 | 0.006 | 9 |  | Cc1cc(S(=O)(=O)N[C@H](C)C2CCN(C)CC2)c(F)cc1NC(=O)c1ccccc1C
 |  | 0.079 |  |  | COCCN1CCC([C@@H](C)NS(=O)(=O)c2ccc(NC(=O)c3ccccc3C)c(C)c2)CC1
 |  | 0.251 |  |  | Cc1cc(S(=O)(=O)NCC2CCN(C)CC2)ccc1NC(=O)c1ccccc1C
1.5 | 25.9 |  |  |  | Cc1cc(S(=O)(=O)N[C@H](C)C2CCN(C)CC2)ccc1NC(=O)c1ccsc1C
 |  | > 1 |  |  | CCCC(=O)N1CCCC(CNS(=O)(=O)c2ccc(NC(=O)c3ccccc3C)c3ccccc23)C1 (stereo not given)
0.2 | 2.7 | 0.033 | 13.5 |  | Cc1ccccc1C(=O)Nc1ccc(S(=O)(=O)N[C@H](C)C2CCN(C)CC2)cc1C#N
 |  | 0.004 |  |  | Cc1ccccc1C(=O)Nc1ccc(S(=O)(=O)NC2CCN(C(=O)N3CCN(C)CC3)CC2)c2ccccc12
2 | 17.7 | 0.028 | 8.9 |  | Cc1cc(S(=O)(=O)N[C@H](C)C2CCN(C)CC2)ccc1NC(=O)C1CCCCCC1
2.2 | 30.4 |  |  |  | CCCN1CCC([C@@H](C)NS(=O)(=O)c2ccc(NC(=O)c3ccccc3C)c(C)c2)CC1
 |  | 0.129 |  |  | COC(=O)CN1CCC([C@@H](C)NS(=O)(=O)c2ccc(NC(=O)c3ccccc3C)c(C)c2)CC1
 |  | > 1 |  |  | CCCC(=O)N1CCCC(C(=O)NS(=O)(=O)c2ccc(NC(=O)c3ccccc3C)c3ccccc23)C1 (stereo not given)
1 | 20.1 |  |  |  | Cc1cc(S(=O)(=O)N[C@H](C)C2CCN(C)CC2)c(C)cc1NC(=O)c1ccccc1C
0.7 | 25.9 |  |  | 233 (≈ 105 µg/mL) | Cc1ccccc1C(=O)Nc1ccc(S(=O)(=O)N[C@H](C)C2CCN(C)CC2)cc1Cl
 |  | > 1 |  |  | CCCN1CCCN(c2cc(NS(=O)(=O)c3ccc(NC(=O)c4ccccc4C)c4ccccc34)ccc2OC)CC1
1.6 | 31.4 | 0.0017 | 19.6 |  | Cc1cc(S(=O)(=O)N[C@H](C)C2CCN(C)CC2)ccc1NC(=O)c1cc(Cl)ccc1C
1.1 | 19.5 |  | 17.7 | 247 (≈ 115 µg/mL) | Cc1ccccc1C(=O)Nc1c(C)cc(S(=O)(=O)N[C@H](C)C2CCN(C)CC2)cc1Cl
1.5 | 25.9 |  |  |  | CCc1cc(S(=O)(=O)N[C@H](C)C2CCN(C)CC2)ccc1NC(=O)c1ccccc1C
 |  | > 1 |  |  | CCCN1CCN(c2ccc(OC)c(NS(=O)(=O)c3ccc(NC(=O)c4ccccc4C)c4ccccc34)c2)CC1
2 | 25.5 |  |  |  | Cc1cc(S(=O)(=O)N[C@H](C)C2CCN(C)CC2)c(Cl)cc1NC(=O)c1ccccc1C
1.1 | 19.4 | 0.0017 | 17.6 |  | Cc1cc(S(=O)(=O)N[C@H](C)C2CCN(C)CC2)ccc1NC(=O)c1ccc(Cl)cc1C
 |  | > 1 |  |  | CCCN1CCN(c2ccc(C)c(NS(=O)(=O)c3ccc(NC(=O)c4ccccc4C)c4ccccc34)c2)CC1
 |  | > 1 |  |  | CCCN1CCN(c2cccc(NS(=O)(=O)c3ccc(NC(=O)c4ccccc4C)c4ccccc34)c2C)CC1
 |  | > 1 |  |  | Cc1ccccc1C(=O)Nc1ccc(S(=O)(=O)NC(C)C2CCCCN2)c2ccccc12 (stereo not given)
0.3 | 3.6 |  |  |  | Cc1cc(S(=O)(=O)N[C@H](C2CC2)C2CCN(C)CC2)ccc1NC(=O)c1ccccc1C
1.3 | 3.4 |  |  | < 3 | Cc1ccccc1C(=O)Nc1ccc(S(=O)(=O)N[C@H](C)C2CCN(C)CC2)c2ccccc12

SMILES | Papp A→B at 2 h, 10 µM [1] [×10⁻⁶ cm/s] | Papp B→A at 2 h, 10 µM [2] [×10⁻⁶ cm/s] | IC50 [3] [µM] | efflux ratio at 2 h, 10 µM [4] | solubility at 2 h [5] [µM]
Cc1ccccc1C(=O)Nc1ccc(S(=O)(=O)Nc2cccc3c2N(CCN(C)C)C(=O)CO3)c2ccccc12 |  |  | > 1 |  | 
Cc1ccccc1C(=O)Nc1ccc(S(=O)(=O)N[C@H](C)C23CCN(CC2)CC3)c2ccccc12 |  |  | 0.303 |  | 
